How the values were obtained:
ABUTH = experiment: greenhouse pre-emergence herbicidal activity against ABUTH; type: in vivo, Abutilon theophrasti; conditions: application rate 3.0 kg/ha, scale 0 to 100
Excerpt: (§1) The seeds of the test plants were sown separately for each species. For the pre-emergence treatment, the active compounds, which had been suspended or emulsified in water, were applied directly after sowing by means of finely distributing nozzles. The containers were irrigated gently to promote germination and growth and subsequently covered with transparent plastic hoods until the plants had rooted. This cover caused uniform germination of the test plants, unless this has been impaired by the active compounds. Depending on the species, the plants were kept at 10-25° C. or 20-35° C. The test period extended over 2 to 4 weeks. During this time, the plants were tended, and their response to the individual treatments was evaluated. Evaluation was carried out using a scale from 0 to 100. 100 means no emergence of the plants, or complete destruction of at least the aerial moieties, and 0 means no damage, or normal course of growth. A good herbicidal activity is given at values of at least 70 and a very good herbicidal activity is given at values of at least 85. The plants used in the greenhouse experiments belonged to the following species: [table]

SETIT = experiment: greenhouse pre-emergence herbicidal activity against SETIT; type: in vivo, Setaria italica; conditions: application rate 3.0 kg/ha, scale 0 to 100
Excerpt: as §1

ALOMY = experiment: greenhouse post-emergence herbicidal activity against ALOMY; type: in vivo, Alopecurus myosuroides; conditions: application rate 3.0 kg/ha, scale 0 to 100
Excerpt: (§2) The seeds of the test plants were sown separately for each species. For the post-emergence treatment, the test plants were first grown to a height of 3 to 15 cm, depending on the plant habit, and then treated with the active compounds which had been suspended or emulsified in water. For this purpose, the test plants were either sown directly and grown in the same containers, or they were first grown separately as seedlings and transplanted into the test containers a few days prior to treatment. Depending on the species, the plants were kept at 10-25° C. or 20-35° C. The test period extended over 2 to 4 weeks. During this time, the plants were tended, and their response to the individual treatments was evaluated. Evaluation was carried out using a scale from 0 to 100. 100 means no emergence of the plants, or complete destruction of at least the aerial moieties, and 0 means no damage, or normal course of growth. A good herbicidal activity is given at values of at least 70 and a very good herbicidal activity is given at values of at least 85. The plants used in the greenhouse experiments belonged to the following species: [table]

AMARE = experiment: greenhouse post-emergence herbicidal activity against AMARE; type: in vivo, Amaranthus retroflexus; conditions: scale 0 to 100
Excerpt: as §2

CHEAL = experiment: greenhouse post-emergence herbicidal activity against CHEAL; type: in vivo, Chenopodium album; conditions: scale 0 to 100
Excerpt: as §2

GALAP = experiment: greenhouse post-emergence herbicidal activity against GALAP; type: in vivo, Galium aparine; conditions: application rate 0.25 kg/ha, scale 0 to 100
Excerpt: as §2

SETFA = experiment: greenhouse post-emergence herbicidal activity against SETFA; type: in vivo, Setaria faberi; conditions: application rate 3.0 kg/ha, scale 0 to 100
Excerpt: as §2

SMILES	herbicidal activity against ABUTH (ABUTH)	herbicidal activity against SETIT (SETIT)	herbicidal activity against ALOMY (ALOMY)	herbicidal activity against AMARE (AMARE; application rate 0.25 kg/ha)	herbicidal activity against CHEAL (CHEAL; application rate 0.25 kg/ha)	herbicidal activity against GALAP (GALAP)	herbicidal activity against SETFA (SETFA)	herbicidal activity against AMARE (AMARE; application rate 0.5 kg/ha)	herbicidal activity against CHEAL (CHEAL; application rate 0.5 kg/ha)
COC(=O)C(C(=O)c1ncccc1O)c1ccccc1C(F)(F)F (stereo not drawn) [I-1, methyl 3-(3-hydroxypyridin-2-yl)-3-oxo-2-(2-trifluoromethylphenyl)propionate]	good (A good herbicidal activity is given at values of at least 70)	very good (a very good herbicidal activity is given at values of at least 85)	good (A good herbicidal activity is given at values of at least 70)	Very good	Very good	very good (a very good herbicidal activity is given at values of at least 85)	very good (a very good herbicidal activity is given at values of at least 85)		
COC(=O)C(=C(OC(C)=O)c1ncccc1OC(C)=O)c1ccccc1C(F)(F)F [I-2, methyl 3-acetoxy-3-(3-acetoxypyridin-2-yl)-2-(2-trifluoromethylphenyl)acrylate]								Very good	Very good

— US20110251063A1, “HETEROCYCLIC DIKETONE DERIVATIVES WITH HERBICIDAL ACTION” (priority 2008, published 2011)
